Measurements published in US12226490B2, “Anti-ROR1 antibody conjugates, compositions comprising anti ROR1 antibody conjugates, and methods of making and using anti-ROR1 antibody conjugates preliminary class” (Sutro Biopharma, Inc., priority 2022, dated 2025).

B1: SRP2196-B07 (antibody, V domains shown)
VH: EVQLVESGGGLVQPGGSLRLSCAASGFNITGYHIHWVRQAPGEGLEWVGYISPNSGATYYADSVEGRFTISADTSKNTAYLQMHSLRAEDTAVYYCTRDSRRYVRGWDYWGQGTLVTVSS
VL: QAVVTQESALTTSPGETVTLTCRSSTGAVTTSNYANWVQEKPDHLFTGLIGGTNKRAPGVPARFSGSLIGDKAALTITGAQTEDEAIYFCALWYSNLWVFGGGTKLTVL

Key:
[1] = test system: ROR1 positive Ntera-2 cell; test: In vitro cell killing of ROR1 ADCs, ROR1 positive cells (Cell Titer-Glo, 120 hours); assay type: cell-based, human; details: Table 13
From the text: (§1) Ntera-2, MDA-MB-231, MCF7, HCT116 and Mino cells were obtained from ATCC. HCT116-hRor1-D02 clone was generated by transfecting HCT116 cells with a plasmid containing human Ror1 cDNA sequence and selected for highest stable expression of hRor1 on the cell surface. MDA-MB-231, MCF7, HCT116 and HCT116-Ror1 cell were maintained in Ham's F-12 high glucose DMEM (50-50) (Cellgro-Mediatech; Manassas, VA) supplemented with 10% heat-inactivated fetal bovine serum (Hyclone; Thermo Scientific; Waltham, MA), 1% Penicillin/Streptomycin (Cellgro-Mediatech; Manassas, VA) and 2 mmol/L-glutamax (Life Technology; Carlsbad, CA). Mino cells were maintained in RPMI-1640 medium (Cellgro-Mediatech; Manassas, VA) supplemented with 20% heat-inactivated fetal bovine serum (Hyclone; Thermo Scientific; Waltham, MA), 1% Penicillin/Streptomycin (Cellgro-Mediatech; Manassas, VA) and 2 mmol/L-glutamax (Life Technology; Carlsbad, CA).
(§2) Anti-ROR1 antibody was conjugated to different linker-warheads described herein at different DARs and the cell killing activity of the ADCs were evaluated on ROR1 positive Ntera-2 cell and ROR1 negative MCF7 cells.
(§3) Ntera-2 or MCF7 cell at 625 cells/25 μL were seeded in a 384-well flat bottom white polystyrene plate one day before the assay start. ADCs were formulated at 2× starting concentration. Filter sterilized samples were serial diluted (1:3) under sterile conditions and added onto cells in triplicates. Plates were cultured at 37° C. in a CO2 incubator for 120 hours. […] Relative luminescence was measured on an ENVISION® plate reader (Perkin-Elmer; Waltham, MA). Relative luminescence readings were converted to % viability using untreated cells as controls. […]
(§4) To evaluate if the cell killing activity of anti-ROR1 ADCs is dependent on antibody binding to ROR1 expressed on cell surface, the same linker-warheads (LP3, LP4) were conjugated to an anti-GFP antibody and the cell killing of the anti-ROR1 and anti-GFP ADCs were evaluated in cell killing assays on ROR1 positive Ntera-2 cell and ROR1 negative MCF7 cells.

ROR1 negative MCF7 cells = test: In vitro cell killing of ROR1 ADCs, ROR1 negative cells (Cell Titer-Glo, 120 hours); assay type: cell-based, human; details: Table 13
From the text: as §1, §2, §3, §4

[2] = test system: ROR1-positive Ntera-2 cells; test: Induction of immunogenic cell death markers (calreticulin by FACS, HMGB1 by ELISA); assay type: cell-based, human; details: 3 days treatment
Protocol: ROR1-positive Ntera-2 cells were treated with Conjugate 46 or exatecan for 3 days. Calreticulin on the cell surface was measured by FACS and HMGB1 in the cell culture medium were measured by ELISA. […] FIG. 20A and FIG. 20B illustrate calreticulin expression and HMGB1 release of Ntera-2 cells in the presence of Conjugate 46 or exatecan compared to the un-conjugated antibody and an isotype control of Conjugate 46.

[3] = test system: ROR1-positive Ntera-2 cells co-cultured with PMBCS; test: Ntera-2 / PBMC co-culture: target cell killing and monocyte activation (FACS); assay type: cell-based, human
Protocol: ROR1-positive Ntera-2 cells were co-cultured with PMBCS at E:T=[…] and treated with Conjugate 46 or exatecan for 3 days. Live target cell count and monocyte activation were measured by FACS. […] FIG. 21A and FIG. 21B are graphs showing the percent of live target cells and monocyte activation in Ntera-2 cells following treatment with Conjugate 46 or exatecan compared to the un-conjugated antibody and an isotype control of Conjugate 46. […] Unconjugated anti-ROR1 antibody or a non-targeted ADC had no activity. […] Viability and calreticulin surface expression were measured and presented as a percentage compared to untreated cells.

[4] = Differential scanning fluorimetry (protein thermal shift; TM1 Fc, TM2 Fab); assay type: physicochemical; details: melting temperature of the Fab domain; Table 11
Protocol: A protein thermal shift assay was carried out by mixing the protein to be assayed with an environmentally sensitive dye (SYPRO Orange, Life Technologies Cat #S-6650) in a phosphate buffered solution (PBS), and monitoring the fluorescence of the mixture in real time as it underwent controlled thermal denaturation. Protein solutions between 0.2-2 mg/mL were mixed at a 1-1 volumetric ratio with a 1-500 PBS-diluted solution of SYPRO Orange (SYPRO Orange stock dye is 5000× in DMSO). 10 μL aliquots of the protein-dye mixture were dispensed in quadruplicate in a 384-well microplate (Bio-Rad Cat #MSP-3852), and the plate was sealed with an optically clear sealing film (Bio-Rad Cat #MSB-1001) and placed in a 384-well plate real-time thermocycler (Bio-Rad CFX384 Real Time System). The protein-dye mixture was heated from 25° C. to 95° C., at increments of 0.1° C. per cycle (˜1.5° C. per minute), allowing 3 seconds of equilibration at each temperature before taking a fluorescence measurement. At the end of the experiment, the transition melting temperatures (TM1 and TM2) were determined using the Bio-Rad CFX manager software. TM1 represents the melting temperature of the Fc domain. TM2 represents the melting temperature of the Fab domain.
For the thermal stability of an antibody, the first melting peak (Tm1) coincides with the unfolding of the CH2 domain (FC stability), while the second melting peak (Tm2) occurs upon unfolding of the Fab domain.

human ROR1-Fz = biological target: T1, human ROR1-Fz (Homo sapiens, UniProt Q01973); test: Biacore off-rate and kinetic analysis, ROR1 frizzled domain; assay type: binding; details: Table 11 (SP34 light chain)
T1 construct: Frizzled (Fz, residues 165-305); HIS6 (C); purchased Acro Biosystems; host or cells: HEK293
Protocol: Anti-Fc polyclonal antibodies were immobilized onto a CM5 chip (GE Life Sciences) using amine coupling chemistry (from Amine Coupling Kit, GE Life Sciences). The immobilization steps were carried out at a flow rate of 25 μL/min in 1×HBS-EP+ buffer (GE Life Sciences; 10× Stock diluted before use). The sensor surfaces were activated for 7 min with a mixture of NHS (0.05 M) and EDC (0.2 M). The Anti-Fc antibodies were injected over all 4 flow cells at a concentration of 25 ug/ml in 10 mM sodium acetate, pH 4.5, for 7 min. Ethanolamine (1 M, pH 8.5) was injected for 7 min to block any remaining activated groups. An average of 12,000 response units (RU) of capture antibody was immobilized on each flow cell.
Off-rate and kinetic binding experiments were performed at 25° C. using 1×HBS-EP+ buffer. Test and control antibodies were injected over the anti-Fc surface at concentrations of 5-10 μg/mL for 12 seconds at a flow rate of 10 μL/min on flow cells 2, 3 and 4, followed by a buffer wash for 30 seconds at the same flow rate. Kinetic characterization of antibody samples was carried out with a range of antigen concentrations from 1-100 nM and 1 injection of 0 nM antigen (for example, 100, 50, 25, 6.25, 1.56 and 0 nM). After capturing ligand (antibody) on the anti-Fc surface, the analyte (hROR1, Fz or Kr domains, Acro Biosystems, Delaware) was bound for 180 seconds, followed by a 600 second dissociation phase at a flow rate of 50 μL/min. Between each ligand capture and analyte binding cycle, regeneration was carried out using 2 injections of 10 mM Glycine pH 2.0 for 30 seconds at 30 μL/min, followed by a 30 second buffer wash step.
The data was fit with the Biacore T200 Evaluation software, using a 1-1 Langmuir binding model. KD (affinity, nM) was determined as a ratio of the kinetic rate constants calculated from the fits of the association and dissociation phases.
For anti-CD3-LC-containing IgGs that had detectable ROR1-binding in ELISA (1944-A07 and 1987-C05 variants), those antibodies were further tested for binding by surface plasmon resonance (SPR). Binding kinetics were assessed to the ROR1-frizzled domain (hROR1-Fz) or the ROR1-extracellular domain (hROR1) for 1944-A07 and 1987-C05 variants, respectively. Briefly, anti-ROR1 antibodies were captured via anti-human Fc polyclonal antibodies immobilized to a CM5 chip, and ROR1 recombinant proteins were flowed across the surface to assess binding kinetics. hROR1 or hROR1-Fz domain (Acro Biosystems, Delaware) binding was tested at 100, 50, 25, 6.25, 1.5625 nM. The data was fit with the Biacore™ T200 Evaluation software, using a 1-1 Langmuir binding model. KD (affinity, nM) was determined as a ratio of the kinetic rate constants calculated from the fits of the association and dissociation phases.

[5] = biological target: T2, HCT116 cells overexpressing human ROR1 (HCT116-hRor1) (Homo sapiens, UniProt Q01973); test: FACS cell binding, affinity maturation leads; details: Table 11 (SP34 light chain)
T2 construct: expressed in transfected cells; host or cells: HCT116
From the text: as §1
Variants with expression levels >250 nM were tested in a fluorescence-activated cell sorting (FACS) cell-binding assay. […]
A mix of ROR1 positive and negative cells was prepared as follows. […] Cells were then washed 2× with FACS buffer and fixed for 10 minutes in 200 μl PBS with 2% PFA prior to fluorescence detection. […] Mean Fluorescence Intensity of ROR1 antibody binding was analyzed using FlowJo® software (Tree Star, Inc.).

[6] = co-culture with PMBCS at E:T=10.1, 3 days

Molecule	NTERA-2 Span [1] [%]	MCF-7 Span (ROR1 negative MCF7 cells) [%]	markers for immunogenic cell death (calreticulin translocation to the cell surface and HMGB1 release) [2]	cell killing of target cells (live target cell count) [3, 6]	monocyte activation (CD86 expression) [3, 6]	calreticulin on the cell surface ([3]; concomitant with reduced viability (FIG. 21C))	TM2 [4] [°C]	Biacore human ROR1-Fz ka (human ROR1-Fz) [M⁻¹ s⁻¹]	Biacore human ROR1-Fz kd (human ROR1-Fz) [s⁻¹]	HCT 116-hROR1 Binding Bmax [5] [MFI]
CC[C@@]1(O)C(=O)OCc2c1cc1n(c2=O)Cc2c-1nc1cc(F)c(C)c3c1c2[C@@H](N)CC3 [exatecan]	98	91	induced markers for immunogenic cell death	induced potent cell killing of target cells	potently induced monocyte activation	calreticulin could be detected on the cell surface	–	–	–	–
B1	–	–	–	–	–	–	69	185000	0.000269	15139
